Measured values: ChEMBL document CHEMBL1143737, “Synthesis and biological evaluation of conformationally constrained analogues of the antitubercular agent ethambutol” (2007)
Values after ≈ are worked out from the molar mass of the structure shown.

Test system: Mycobacterium tuberculosis
Assay: Antimycobacterial activity against Mycobacterium tuberculosis H37Rv after 6 days by colorimetric microassay
Assay type: functional
Conditions: 144 h

Structure (SMILES): CC[C@@H](CO)NCCN[C@@H](CC)CO [ETHAMBUTOL]
- MIC: 2 µg/mL (≈ 9.79 µM)
